The results in this text go back to ChEMBL document CHEMBL1201862, “PubChem BioAssay data set” (2004).

The structures appear in SMILES notation. Activity calls are given as the source filed them.

Test [1] concerns the target Major prion protein (Homo sapiens, UniProt P04156). In kind it is functional, cell-based.
The nature of test [2]: cells.
The target in test [3] is Peroxisome proliferator-activated receptor gamma/Nuclear receptor coactivator 2 (Homo sapiens, UniProt P37231). Kind of test: TR-FRET dose response biochemical High Throughput Screening assay for agonists of the steroid receptor coactivator 2 (SRC-2) recruitment by the peroxisome proliferator-activated receptor gamma (PPAR gamma): non-selective agonists. [Related pubchem assays: 1297, 1032 ]. In kind it is functional.
Peroxisome proliferator-activated receptor gamma/Nuclear receptor coactivator 2, sequence (Q15596 whole entry, one chain of several, further chain): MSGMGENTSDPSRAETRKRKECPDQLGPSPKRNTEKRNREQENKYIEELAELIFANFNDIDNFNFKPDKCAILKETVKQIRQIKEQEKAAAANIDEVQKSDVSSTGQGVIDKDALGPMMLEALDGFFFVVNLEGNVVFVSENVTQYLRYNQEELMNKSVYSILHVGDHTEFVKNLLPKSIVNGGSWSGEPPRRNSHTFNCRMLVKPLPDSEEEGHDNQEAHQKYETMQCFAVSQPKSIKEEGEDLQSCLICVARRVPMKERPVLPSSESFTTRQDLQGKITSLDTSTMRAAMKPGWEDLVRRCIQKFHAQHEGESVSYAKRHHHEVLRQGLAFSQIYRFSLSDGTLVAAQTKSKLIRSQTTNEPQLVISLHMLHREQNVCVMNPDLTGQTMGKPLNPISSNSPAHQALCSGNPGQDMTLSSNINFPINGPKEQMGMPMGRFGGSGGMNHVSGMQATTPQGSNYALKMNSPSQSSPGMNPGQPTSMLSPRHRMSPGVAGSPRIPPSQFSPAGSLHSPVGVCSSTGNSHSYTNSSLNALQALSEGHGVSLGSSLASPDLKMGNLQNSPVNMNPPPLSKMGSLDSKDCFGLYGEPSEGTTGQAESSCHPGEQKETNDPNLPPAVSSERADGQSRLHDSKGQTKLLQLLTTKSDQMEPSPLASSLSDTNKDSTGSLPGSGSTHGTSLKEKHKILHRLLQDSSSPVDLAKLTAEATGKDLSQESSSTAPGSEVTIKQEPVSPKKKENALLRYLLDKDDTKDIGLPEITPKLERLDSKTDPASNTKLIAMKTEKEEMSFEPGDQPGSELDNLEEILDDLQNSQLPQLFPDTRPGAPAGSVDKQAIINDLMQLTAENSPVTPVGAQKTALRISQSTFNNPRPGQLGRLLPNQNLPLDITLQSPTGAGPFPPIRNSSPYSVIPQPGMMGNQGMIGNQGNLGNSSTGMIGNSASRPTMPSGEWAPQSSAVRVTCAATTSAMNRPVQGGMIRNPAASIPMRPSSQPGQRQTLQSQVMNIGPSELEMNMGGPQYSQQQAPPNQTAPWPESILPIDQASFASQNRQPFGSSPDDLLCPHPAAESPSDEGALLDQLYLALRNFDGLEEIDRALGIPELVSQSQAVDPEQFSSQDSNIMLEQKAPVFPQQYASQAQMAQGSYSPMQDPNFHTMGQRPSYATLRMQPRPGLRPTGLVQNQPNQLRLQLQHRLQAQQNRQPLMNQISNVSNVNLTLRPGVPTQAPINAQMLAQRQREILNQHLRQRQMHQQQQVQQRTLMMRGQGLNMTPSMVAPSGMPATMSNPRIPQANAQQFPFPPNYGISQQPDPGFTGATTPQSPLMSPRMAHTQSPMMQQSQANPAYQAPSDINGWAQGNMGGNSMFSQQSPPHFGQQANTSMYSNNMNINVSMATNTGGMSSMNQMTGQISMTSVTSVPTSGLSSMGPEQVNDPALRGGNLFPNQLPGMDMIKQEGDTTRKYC

Test [4] concerns the target Peroxisome proliferator-activated receptor gamma/Nuclear receptor coactivator 3 (Homo sapiens, UniProt P37231). Kind of test: TR-FRET dose response biochemical High Throughput Screening assay for agonists of the steroid receptor coactivator 3 (SRC-3) recruitment by the peroxisome proliferator-activated receptor gamma (PPAR gamma): non-selective agonists. [Related pubchem assays: 1301 (Confirmation screen.), 1048 (Primary screen.)]. The class given is functional. In general terms: TR-FRET usually uses a lanthanide donor and a delayed reading to cut background.

Test [5] has as its target Peroxisome proliferator-activated receptor gamma/Nuclear receptor coactivator 1 (Homo sapiens, UniProt P37231). Kind of test: TR-FRET dose response biochemical High Throughput Screening assay for agonists of the steroid receptor coactivator 1 (SRC-1) recruitment by the peroxisome proliferator-activated receptor gamma (PPAR gamma): non-selective agonists. [Related pubchem assays (depositor defined):AID1300, AID1808, AID504735, AID631]. The class given is protein assay.

For test [6], the target named is Mitogen-activated protein kinase 10 (Homo sapiens, UniProt P53779). The experiment in a line: Dose response biochemical screening assay for inhibitors of c-Jun N-Terminal Kinase 3 (JNK3). [Related pubchem assays: 746 ].
The target of test [7] is T1, Peroxisome proliferator-activated receptor gamma (Homo sapiens, UniProt P37231).
T1 sequence (P37231 whole entry): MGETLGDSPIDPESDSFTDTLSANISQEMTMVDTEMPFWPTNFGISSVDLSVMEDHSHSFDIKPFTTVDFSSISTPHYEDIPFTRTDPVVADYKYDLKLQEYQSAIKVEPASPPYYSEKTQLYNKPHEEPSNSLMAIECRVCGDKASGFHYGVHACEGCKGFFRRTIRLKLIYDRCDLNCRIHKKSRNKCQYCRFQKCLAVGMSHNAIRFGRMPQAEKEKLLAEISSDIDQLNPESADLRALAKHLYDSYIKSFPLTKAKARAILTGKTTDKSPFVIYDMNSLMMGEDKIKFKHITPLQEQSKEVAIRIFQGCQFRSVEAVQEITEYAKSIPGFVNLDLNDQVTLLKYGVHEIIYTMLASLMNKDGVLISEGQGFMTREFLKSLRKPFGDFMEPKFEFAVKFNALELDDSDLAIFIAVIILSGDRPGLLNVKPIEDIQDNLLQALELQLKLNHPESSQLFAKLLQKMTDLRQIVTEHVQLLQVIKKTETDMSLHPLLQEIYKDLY
Kind of test: PPARg partial agonists, dose response, cell-based, luminescence, assay provider (AID 504447). In kind it is functional.

Test [8] in a line: HIV-1 Env-mediated cell fusion inhibitors, dose response, CCR5-tropic Env (AID 2279). The class given is functional.
Test [9] has as its target Peroxisome proliferator-activated receptor alpha (Homo sapiens, UniProt Q07869). Kind of test: Late stage assay provider counterscreen for partial agonists of the peroxisome proliferator-activated receptor gamma (PPARg): Luminescence-based cell-based dose response assay for partial agonists of the peroxisome proliferator-activated receptor alpha (PPARA). [Related pubchem assays (depositor defined):AID1051, AID1300, AID1319, AID1679, AID1808, AID504446, AID504447, AID504452, AID504453, AID631]. The class given is functional. (A counterscreen serves to expose hits that act by an unwanted route or on another target.)

Test [10] is described as follows: Luminescence Cell-Based Dose Retest to Confirm Inhibitors of Cancer Stem Cells. [Related pubchem assays (depositor defined):AID2717, AID2721]. In kind it is functional. Conditions: Homo sapiens.
In test [11] the test system is Vero. The experiment in a line: Vero cell cytotoxicity, cytotoxicity control for flavivirus capping enzyme inhibitors (AID 588742). In kind it is functional. The following applies: Chlorocebus sabaeus.
The target of test [12] is G-protein coupled receptor 55 (Homo sapiens, UniProt Q9Y2T6). Kind of test: GPR55 antagonists blocking LPI-driven arrestin recruitment, primary screen, imaging, U2OS, beta-arrestin-GFP, LPI agonist (AID 2013).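 Note: antagonist potency measured as reduced agonist-driven arrestin aggregation.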 In kind it is functional.
G-protein coupled receptor 55, sequence (Q9Y2T6 whole entry, the tested form may be a part): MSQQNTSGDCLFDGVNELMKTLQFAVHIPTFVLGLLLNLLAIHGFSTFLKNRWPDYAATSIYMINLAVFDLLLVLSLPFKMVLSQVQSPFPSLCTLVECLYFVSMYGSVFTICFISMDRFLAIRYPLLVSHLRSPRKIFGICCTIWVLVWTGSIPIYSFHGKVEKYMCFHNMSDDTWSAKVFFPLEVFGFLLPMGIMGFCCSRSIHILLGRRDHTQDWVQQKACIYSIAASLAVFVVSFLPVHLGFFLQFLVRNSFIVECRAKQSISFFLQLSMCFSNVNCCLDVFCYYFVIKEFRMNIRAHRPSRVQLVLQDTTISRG
Test [13] addresses T1, Peroxisome proliferator-activated receptor gamma. Kind of test: PPARg ligand-binding domain binders, dose response, PPARg partial agonist project, biochemical, fluorescence polarization, PolarScreen (AID 504453).
For test [14] the target is unchanged. The experiment in a line: PPARg ligand-binding domain binders, dose response, PPARg partial agonist project, biochemical, TR-FRET, LanthaScreen (AID 504446).
The target in test [15] is Kappa-type opioid receptor (Homo sapiens, UniProt P41145). The experiment in a line: SAR analysis of small molecule agonists of the kappa opioid receptor via a luminescent beta-arrestin assay - Set 3. [Related pubchem assays (depositor defined):AID1777, AID1785, AID1786, AID1966, AID2133, AID2136, AID2284, AID2500]. The class given is functional.
A short description of test [16]: Vero cell cytotoxicity, dose response, cytotoxicity control for Vif-APOBEC3G degradation inhibitor project, Vero cells (AID 1117358). In kind it is functional. Conditions: Human immunodeficiency virus 1, Vero.
The target in test [17] is T2, Tyrosine-protein phosphatase non-receptor type 22 (Homo sapiens, UniProt Q9Y2R2).
T2 sequence (Q9Y2R2 whole entry): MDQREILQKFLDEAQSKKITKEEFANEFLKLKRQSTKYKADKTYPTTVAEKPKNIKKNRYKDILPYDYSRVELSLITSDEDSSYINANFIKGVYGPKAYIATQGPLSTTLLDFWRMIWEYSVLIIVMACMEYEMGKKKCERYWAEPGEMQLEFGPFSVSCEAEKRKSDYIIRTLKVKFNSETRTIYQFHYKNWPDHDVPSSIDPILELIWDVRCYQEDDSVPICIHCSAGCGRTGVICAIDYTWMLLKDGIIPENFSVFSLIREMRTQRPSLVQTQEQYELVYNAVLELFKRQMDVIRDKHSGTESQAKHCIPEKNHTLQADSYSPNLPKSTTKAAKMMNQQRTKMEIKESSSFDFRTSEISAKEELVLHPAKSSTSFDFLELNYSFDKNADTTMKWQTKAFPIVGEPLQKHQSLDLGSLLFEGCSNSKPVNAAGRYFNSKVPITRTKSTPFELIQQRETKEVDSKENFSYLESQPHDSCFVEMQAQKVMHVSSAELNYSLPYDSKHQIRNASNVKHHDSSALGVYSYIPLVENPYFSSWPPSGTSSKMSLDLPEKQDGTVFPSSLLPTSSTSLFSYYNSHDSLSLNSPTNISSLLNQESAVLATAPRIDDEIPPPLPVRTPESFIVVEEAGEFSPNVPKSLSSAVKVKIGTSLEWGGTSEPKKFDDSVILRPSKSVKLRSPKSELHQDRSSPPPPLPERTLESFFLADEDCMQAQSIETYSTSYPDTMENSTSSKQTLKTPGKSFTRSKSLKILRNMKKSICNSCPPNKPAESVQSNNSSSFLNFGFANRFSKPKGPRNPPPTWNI
In kind it is functional.

Test [18] concerns the target T3, fMet-Leu-Phe receptor (Homo sapiens, UniProt P21462).
T3 sequence (P21462 whole entry): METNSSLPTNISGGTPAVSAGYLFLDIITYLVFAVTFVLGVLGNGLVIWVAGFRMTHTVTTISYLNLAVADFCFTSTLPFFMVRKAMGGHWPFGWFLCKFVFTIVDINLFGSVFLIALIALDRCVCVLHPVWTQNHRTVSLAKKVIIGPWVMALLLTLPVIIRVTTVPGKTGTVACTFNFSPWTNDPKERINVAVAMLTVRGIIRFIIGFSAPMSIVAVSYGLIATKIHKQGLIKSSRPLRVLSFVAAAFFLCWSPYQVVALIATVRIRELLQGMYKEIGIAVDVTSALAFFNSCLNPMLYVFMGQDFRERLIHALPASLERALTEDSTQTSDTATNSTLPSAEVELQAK
The experiment in a line: FPR ligands, dose response (AID 519). In kind it is functional.

The target of test [19] is Tyrosine-protein phosphatase non-receptor type 7 (Homo sapiens, UniProt P35236). In kind it is functional.
Tyrosine-protein phosphatase non-receptor type 7, sequence (P35236 whole entry): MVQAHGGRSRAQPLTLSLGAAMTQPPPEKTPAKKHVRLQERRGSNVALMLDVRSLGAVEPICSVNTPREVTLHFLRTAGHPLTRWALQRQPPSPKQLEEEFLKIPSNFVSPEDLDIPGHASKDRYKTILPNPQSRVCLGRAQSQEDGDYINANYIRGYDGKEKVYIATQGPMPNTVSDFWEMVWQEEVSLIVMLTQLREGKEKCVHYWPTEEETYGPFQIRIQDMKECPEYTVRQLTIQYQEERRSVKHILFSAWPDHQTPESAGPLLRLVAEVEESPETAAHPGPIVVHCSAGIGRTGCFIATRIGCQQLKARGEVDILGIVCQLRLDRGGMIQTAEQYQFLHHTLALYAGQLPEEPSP
Test [20] concerns the target T2, Tyrosine-protein phosphatase non-receptor type 22. In kind it is functional. The source holds these as a separate data set.
Test [21] deals with Sphingosine 1-phosphate receptor 1 (Homo sapiens, UniProt P21453). The experiment in a line: Fluorescence-based counterscreen assay for S1P4 agonists: Cell-based dose response high throughput screening assay to identify agonists of the Sphingosine 1-Phosphate Receptor 1 (S1P1). [Related pubchem assays (depositor defined):AID1509, AID1523, AID1801, AID463107, AID463118, AID463119, AID463122, AID463123, AID463129, AID463225, AID504400, AID504460]. In kind it is functional.

Test [22] concerns the target T4, Sphingosine 1-phosphate receptor 4 (Homo sapiens, UniProt O95977).
T4 sequence (O95977 whole entry): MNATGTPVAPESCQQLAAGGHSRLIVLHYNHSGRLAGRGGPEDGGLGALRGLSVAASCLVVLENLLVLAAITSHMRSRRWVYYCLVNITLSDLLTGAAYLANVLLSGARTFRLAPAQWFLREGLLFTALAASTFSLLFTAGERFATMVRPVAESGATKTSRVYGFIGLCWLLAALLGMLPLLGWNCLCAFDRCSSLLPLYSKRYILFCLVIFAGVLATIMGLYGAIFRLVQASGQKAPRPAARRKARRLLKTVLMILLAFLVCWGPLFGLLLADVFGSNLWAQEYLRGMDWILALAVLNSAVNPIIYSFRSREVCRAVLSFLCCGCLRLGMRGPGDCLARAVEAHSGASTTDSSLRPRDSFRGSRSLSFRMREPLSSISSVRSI
Kind of test: Fluorescence dose response cell-based high throughput screening assay for agonists of the Sphingosine 1-Phosphate Receptor 4 (S1P4). [Related pubchem assays: 1509 (Primary screen.), 1523 (Confirmation screen in triplicates.)]. In kind it is functional.
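Throughout, for AC50: cells exposed to compound for roughly 70 hours or longer before luminescence read.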

Peroxisome proliferator-activated receptor gamma/Nuclear receptor coactivator 1, sequence (Q15788 whole entry, one chain of several, further chain): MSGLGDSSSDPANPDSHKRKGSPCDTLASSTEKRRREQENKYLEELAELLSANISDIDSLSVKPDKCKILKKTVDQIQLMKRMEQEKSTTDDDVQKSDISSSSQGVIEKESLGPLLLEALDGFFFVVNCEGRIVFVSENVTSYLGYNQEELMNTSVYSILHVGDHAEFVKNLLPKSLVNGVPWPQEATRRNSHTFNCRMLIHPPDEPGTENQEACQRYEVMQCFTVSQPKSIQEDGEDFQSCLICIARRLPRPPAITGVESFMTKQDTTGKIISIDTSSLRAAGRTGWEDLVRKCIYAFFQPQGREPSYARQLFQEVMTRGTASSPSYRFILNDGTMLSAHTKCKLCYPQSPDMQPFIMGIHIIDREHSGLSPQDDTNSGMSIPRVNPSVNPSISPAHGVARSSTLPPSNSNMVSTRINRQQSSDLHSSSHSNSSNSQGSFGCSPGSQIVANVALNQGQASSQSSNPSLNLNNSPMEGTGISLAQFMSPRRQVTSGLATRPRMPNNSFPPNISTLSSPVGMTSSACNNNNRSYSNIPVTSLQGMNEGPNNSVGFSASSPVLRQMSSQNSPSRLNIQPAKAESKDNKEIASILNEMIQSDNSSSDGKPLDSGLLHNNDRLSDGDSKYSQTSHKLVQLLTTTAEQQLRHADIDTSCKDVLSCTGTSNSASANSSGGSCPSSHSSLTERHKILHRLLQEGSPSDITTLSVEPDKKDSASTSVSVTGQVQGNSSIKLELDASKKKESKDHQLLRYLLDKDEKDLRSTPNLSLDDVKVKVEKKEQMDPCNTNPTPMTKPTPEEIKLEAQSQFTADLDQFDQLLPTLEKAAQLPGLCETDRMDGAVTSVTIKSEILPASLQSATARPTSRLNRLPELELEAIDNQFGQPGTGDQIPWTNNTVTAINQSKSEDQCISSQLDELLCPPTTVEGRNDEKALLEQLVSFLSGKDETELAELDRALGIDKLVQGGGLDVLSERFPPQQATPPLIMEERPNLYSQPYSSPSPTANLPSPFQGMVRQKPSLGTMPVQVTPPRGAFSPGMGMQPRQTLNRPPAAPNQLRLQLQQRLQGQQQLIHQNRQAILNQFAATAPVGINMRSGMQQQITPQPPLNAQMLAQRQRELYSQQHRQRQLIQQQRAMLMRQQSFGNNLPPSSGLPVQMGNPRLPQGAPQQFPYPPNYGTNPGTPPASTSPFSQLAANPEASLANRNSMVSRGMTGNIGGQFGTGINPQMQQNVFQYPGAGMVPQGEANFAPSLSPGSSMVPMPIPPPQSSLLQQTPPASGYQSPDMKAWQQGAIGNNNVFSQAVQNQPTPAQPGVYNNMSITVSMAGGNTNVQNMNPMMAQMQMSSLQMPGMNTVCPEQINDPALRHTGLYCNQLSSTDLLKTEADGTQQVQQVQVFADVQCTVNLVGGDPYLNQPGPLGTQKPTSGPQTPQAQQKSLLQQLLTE
Peroxisome proliferator-activated receptor gamma/Nuclear receptor coactivator 3, sequence (Q9Y6Q9 whole entry, one chain of several, further chain): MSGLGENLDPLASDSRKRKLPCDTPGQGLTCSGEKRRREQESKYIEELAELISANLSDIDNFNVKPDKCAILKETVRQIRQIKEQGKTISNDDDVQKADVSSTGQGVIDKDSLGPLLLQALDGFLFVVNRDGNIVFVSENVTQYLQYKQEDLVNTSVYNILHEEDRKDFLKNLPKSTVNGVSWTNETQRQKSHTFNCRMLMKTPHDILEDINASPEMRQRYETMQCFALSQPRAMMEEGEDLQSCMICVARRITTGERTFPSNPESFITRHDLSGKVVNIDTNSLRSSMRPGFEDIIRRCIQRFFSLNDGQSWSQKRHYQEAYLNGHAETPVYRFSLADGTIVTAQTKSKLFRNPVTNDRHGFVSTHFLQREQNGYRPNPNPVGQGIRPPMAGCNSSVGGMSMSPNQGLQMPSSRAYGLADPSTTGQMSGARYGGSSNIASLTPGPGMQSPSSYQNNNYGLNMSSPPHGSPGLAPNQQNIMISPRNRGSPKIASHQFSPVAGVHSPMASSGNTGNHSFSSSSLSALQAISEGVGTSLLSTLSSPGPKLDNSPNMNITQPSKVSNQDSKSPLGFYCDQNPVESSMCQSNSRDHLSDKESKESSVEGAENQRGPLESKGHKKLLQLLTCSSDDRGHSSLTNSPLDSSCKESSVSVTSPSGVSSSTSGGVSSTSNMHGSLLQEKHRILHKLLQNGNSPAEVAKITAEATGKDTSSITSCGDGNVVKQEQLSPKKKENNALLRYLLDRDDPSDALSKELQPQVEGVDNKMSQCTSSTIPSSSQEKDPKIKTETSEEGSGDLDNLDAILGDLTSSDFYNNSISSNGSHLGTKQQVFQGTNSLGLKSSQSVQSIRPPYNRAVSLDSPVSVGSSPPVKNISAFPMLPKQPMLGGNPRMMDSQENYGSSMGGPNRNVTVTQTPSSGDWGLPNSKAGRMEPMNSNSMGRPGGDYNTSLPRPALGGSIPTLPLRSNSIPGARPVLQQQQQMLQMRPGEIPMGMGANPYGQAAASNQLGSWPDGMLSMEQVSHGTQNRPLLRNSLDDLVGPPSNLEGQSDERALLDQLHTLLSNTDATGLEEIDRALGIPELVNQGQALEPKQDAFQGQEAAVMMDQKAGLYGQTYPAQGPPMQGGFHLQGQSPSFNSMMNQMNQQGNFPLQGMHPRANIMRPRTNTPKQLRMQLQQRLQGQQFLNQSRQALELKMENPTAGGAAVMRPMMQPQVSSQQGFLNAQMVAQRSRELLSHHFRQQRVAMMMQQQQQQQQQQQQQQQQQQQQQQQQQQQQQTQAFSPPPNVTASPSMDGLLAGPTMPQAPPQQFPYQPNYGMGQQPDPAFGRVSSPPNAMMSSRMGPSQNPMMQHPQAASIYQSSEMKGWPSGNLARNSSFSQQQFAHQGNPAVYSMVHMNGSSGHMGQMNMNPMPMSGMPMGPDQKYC

On to `CC(Sc1ccc2ccccc2n1)C(=O)O` (configuration not stated), for which the IC50 was 1.56 µM (active) in test [1], > 138 µM (inactive) in test [2] and 4.87 µM (active) in [6]. Further, the EC50 in test [3] was > 79.4 µM (not active); in [4], > 79.4 µM (not active); in test [5] it was > 79.4 µM (inactive).
Take `COc1ccc(-c2nn(-c3ccccc3)cc2/C=C2/SC(=S)N(CCC(=O)O)C2=O)c(C)c1`: the EC50 in [7] was 0.283 µM (active); in test [9], > 3 µM (inactive). Also, the IC50 was 47.4 µM (active) in [8], 0.665 µM (active) in [12], 0.152 µM (active) in test [13] and 0.194 µM (active) in test [14]. In addition, the concentration at half-maximal activity (AC50) in [10] was 9.19 µM (active). Besides, the 50% cytotoxic concentration (CC50) in [11] is > 40 µM (active).
Consider `FC(F)(F)c1cc(CSc2nnc(-c3ccccn3)n2Cc2ccccc2Cl)ccc1Cl`, for which the half-maximal effective concentration (EC50) in [15] was 4.3 µM (active).
For the molecule `O=C(O)CCCNc1cc(N2CCC3(CC2)OCCO3)c2noc3c2c1C(=O)c1ccccc1-3`, the CC50 in test [16] was > 40 µM (active). The 50% inhibitory concentration (IC50) in [17] was 68.9 µM (active); in test [19], 69.3 µM (active); in [20], 61.9 µM (active). Moreover, the Ki in test [18] was 34.1 µM (inactive).
On to `Clc1ccc(/C=C\c2[nH]ccc3c4ccccc4nc2-3)cc1`, for which the EC50 in [21] was 2.18 µM (active); in test [22], 4.41 µM (active).

The term IC50 denotes the concentration needed to halve the response being measured. Usually EC50 stands for the concentration giving half of the maximal effect. One may read the AC50 as the concentration giving half of the maximal activity seen. The term CC50 denotes the concentration giving 50% cytotoxicity. For orientation: Ki means the dissociation constant of the complex between target and ligand, obtained from inhibition or displacement.
